Measured values: ChEMBL document CHEMBL2440076, “New triarylpyrazoles as broad-spectrum anticancer agents: design, synthesis, and biological evaluation” (Eur J Med Chem, 2013)

Key:
Type in all cases: functional
OVCAR-8 = test: Growth inhibition of human OVCAR8 cells assessed as cell growth at 5X10'-5 M after 48 hrs by sulforhodamine B assay; conditions: OVCAR-8, 48 h, read-out: Activity
NCI-H322M [1] = test: Growth inhibition of human NCI-H322M cells assessed as cell growth at 5X10'-9 M after 48 hrs by sulforhodamine B assay; conditions: read-out: Activity
HOP-62 [2] = test: Growth inhibition of human HOP62 cells assessed as cell growth at 5X10'-6 M after 48 hrs by sulforhodamine B assay; conditions: HOP-62, 48 h, read-out: Activity
HCT-116 [3] = test: Growth inhibition of human HCT116 cells assessed as cell growth at 5X10'-7 M after 48 hrs by sulforhodamine B assay; conditions: HCT-116, 48 h, read-out: Activity
MDA-MB-435 = test: Growth inhibition of human MDA-MB-435 cells assessed as cell growth at 5X10'-8 M after 48 hrs by sulforhodamine B assay; conditions: MDA-MB-435, 48 h, read-out: Activity
HT-29 [4] = test: Growth inhibition of human HT-29 cells assessed as cell growth at 5X10'-5 M after 48 hrs by sulforhodamine B assay; conditions: HT-29, 48 h, read-out: Activity
OVCAR-4 = test: Growth inhibition of human OVCAR4 cells assessed as cell growth at 5X10'-8 M after 48 hrs by sulforhodamine B assay; conditions: OVCAR-4, 48 h, read-out: Activity
UACC-62 [5] = test: Growth inhibition of human UACC62 cells assessed as cell growth at 5X10'-8 M after 48 hrs by sulforhodamine B assay; conditions: UACC-62, 48 h, read-out: Activity
MDA-MB-231 = test: Growth inhibition of human MDA-MB-231 cells assessed as cell growth at 5X10'-8 M after 48 hrs by sulforhodamine B assay; conditions: MDA-MB-231, 48 h, read-out: Activity
HOP-62 [6] = test: Growth inhibition of human HOP62 cells assessed as cell growth at 5X10'-7 M after 48 hrs by sulforhodamine B assay; conditions: HOP-62, 48 h, read-out: Activity
NCI-H322M [7] = test: Growth inhibition of human NCI-H322M cells assessed as cell growth at 5X10'-5 M after 48 hrs by sulforhodamine B assay; conditions: read-out: Activity
MDA-MB-468 = test: Growth inhibition of human MDA-MB-468 cells assessed as cell growth at 5X10'-6 M after 48 hrs by sulforhodamine B assay; conditions: MDA-MB-468, 48 h, read-out: Activity
SK-MEL-28 = test: Growth inhibition of human SK-MEL-28 cells assessed as cell growth at 5X10'-9 M after 48 hrs by sulforhodamine B assay; conditions: SK-MEL-28, 48 h, read-out: Activity
HT-29 [8] = test: Growth inhibition of human HT-29 cells assessed as cell growth at 5X10'-9 M after 48 hrs by sulforhodamine B assay; conditions: HT-29, 48 h, read-out: Activity
IGROV-1 = test: Growth inhibition of human IGROV1 cells assessed as cell growth at 5X10'-9 M after 48 hrs by sulforhodamine B assay; conditions: IGROV-1, 48 h, read-out: Activity
NCI-H322M [9] = test: Growth inhibition of human NCI-H322M cells assessed as cell growth at 5X10'-6 M after 48 hrs by sulforhodamine B assay; conditions: read-out: Activity
HCT-116 [10] = test: Growth inhibition of human HCT116 cells assessed as cell growth at 5X10'-5 M after 48 hrs by sulforhodamine B assay; conditions: HCT-116, 48 h, read-out: Activity
SNB-19 = test: Growth inhibition of human SNB19 cells assessed as cell growth at 5X10'-6 M after 48 hrs by sulforhodamine B assay; conditions: SNB-19, 48 h, read-out: Activity
SF-268 = test: Growth inhibition of human SF268 cells assessed as cell growth at 5X10'-5 M after 48 hrs by sulforhodamine B assay; conditions: SF-268, 48 h, read-out: Activity
RXF 393 = test: Growth inhibition of human RXF393 cells assessed as cell growth at 5X10'-5 M after 48 hrs by sulforhodamine B assay; conditions: RXF 393, 48 h, read-out: Activity
A549 = test: Growth inhibition of human A549/ATCC cells assessed as cell growth at 5X10'-9 M after 48 hrs by sulforhodamine B assay; conditions: A549, 48 h, read-out: Activity
HOP-92 = test: Growth inhibition of human HOP92 cells assessed as cell growth at 5X10'-8 M after 48 hrs by sulforhodamine B assay; conditions: HOP-92, 48 h, read-out: Activity
SF-295 [11] = test: Growth inhibition of human SF295 cells assessed as cell growth at 5X10'-6 M after 48 hrs by sulforhodamine B assay; conditions: SF-295, 48 h, read-out: Activity
HCT-15 [12] = test: Growth inhibition of human HCT15 cells assessed as cell growth at 5X10'-9 M after 48 hrs by sulforhodamine B assay; conditions: HCT-15, 48 h, read-out: Activity
SF-295 [13] = test: Growth inhibition of human SF295 cells assessed as cell growth at 5X10'-7 M after 48 hrs by sulforhodamine B assay; conditions: SF-295, 48 h, read-out: Activity
NCI-H460 = test: Growth inhibition of human NCI-H460 cells assessed as cell growth at 5X10'-6 M after 48 hrs by sulforhodamine B assay; conditions: NCI-H460, 48 h, read-out: Activity
LOX IMVI = test: Growth inhibition of human LOXIMVI cells assessed as cell growth at 5X10'-8 M after 48 hrs by sulforhodamine B assay; conditions: read-out: Activity
SNB-75 = test: Growth inhibition of human SNB75 cells assessed as cell growth at 5X10'-5 M after 48 hrs by sulforhodamine B assay; conditions: SNB-75, 48 h, read-out: Activity
MOLT-4 = test: Growth inhibition of human MOLT4 cells assessed as cell growth at 5X10'-9 M after 48 hrs by sulforhodamine B assay; conditions: MOLT-4, 48 h, read-out: Activity
UACC-62 [14] = test: Growth inhibition of human UACC62 cells assessed as cell growth at 5X10'-7 M after 48 hrs by sulforhodamine B assay; conditions: UACC-62, 48 h, read-out: Activity
COLO 205 = test: Growth inhibition of human COLO205 cells assessed as cell growth at 5X10'-9 M after 48 hrs by sulforhodamine B assay; conditions: COLO 205, 48 h, read-out: Activity
K562 = test: Growth inhibition of human K562 cells assessed as cell growth at 5X10'-8 M after 48 hrs by sulforhodamine B assay; conditions: K562, 48 h, read-out: Activity
HCT-15 [15] = test: Growth inhibition of human HCT15 cells assessed as cell growth at 5X10'-6 M after 48 hrs by sulforhodamine B assay; conditions: HCT-15, 48 h, read-out: Activity
OVCAR-5 = test: Growth inhibition of human OVCAR5 cells assessed as cell growth at 5X10'-7 M after 48 hrs by sulforhodamine B assay; conditions: OVCAR-5, 48 h, read-out: Activity
HCT-15 [16] = test: Growth inhibition of human HCT15 cells assessed as cell growth at 5X10'-7 M after 48 hrs by sulforhodamine B assay; conditions: HCT-15, 48 h, read-out: Activity
786-0 = test: Growth inhibition of human 786-0 cells assessed as cell growth at 5X10'-7 M after 48 hrs by sulforhodamine B assay; conditions: 786-0, 48 h, read-out: Activity

SMILES	growth at 50 µM (OVCAR-8) [%]	growth at 0.005 µM (NCI-H322M [1]) [%]	growth at 5 µM (HOP-62 [2]) [%]	growth at 0.5 µM (HCT-116 [3]) [%]	growth at 0.05 µM (MDA-MB-435) [%]	growth at 50 µM (HT-29 [4]) [%]	growth at 0.05 µM (OVCAR-4) [%]	growth at 0.05 µM (UACC-62 [5]) [%]	growth at 0.05 µM (MDA-MB-231) [%]	growth at 0.5 µM (HOP-62 [6]) [%]	growth at 50 µM (NCI-H322M [7]) [%]	growth at 5 µM (MDA-MB-468) [%]	growth at 0.005 µM (SK-MEL-28) [%]	growth at 0.005 µM (HT-29 [8]) [%]	growth at 0.005 µM (IGROV-1) [%]	growth at 5 µM (NCI-H322M [9]) [%]	growth at 50 µM (HCT-116 [10]) [%]	growth at 5 µM (SNB-19) [%]	growth at 50 µM (SF-268) [%]	growth at 50 µM (RXF 393) [%]	also measured
COc1cc(-c2nn(-c3cccc(NC(=O)Nc4cc(C(F)(F)F)cc(C(F)(F)F)c4)c3)cc2-c2ccncc2)ccc1Cl	-11	97	-92	62	98	-77	92	93	95	93	-58	-42	101	110	109	-24	-67	-9	-43	-65	growth at 0.005 µM (A549): 96%; growth at 0.05 µM (HOP-92): 67%; growth at 5 µM (SF-295 [11]): -71%; growth at 0.005 µM (HCT-15 [12]): 97%; growth at 0.5 µM (SF-295 [13]): 45%; growth at 5 µM (NCI-H460): -41%; growth at 0.05 µM (LOX IMVI): 105%; growth at 50 µM (SNB-75): -62%; growth at 0.005 µM (MOLT-4): 104%; growth at 0.5 µM (UACC-62 [14]): 66%; growth at 0.005 µM (COLO 205): 107%; growth at 0.05 µM (K562): 99%; growth at 5 µM (HCT-15 [15]): -57%; growth at 0.5 µM (OVCAR-5): 82%; growth at 0.5 µM (HCT-15 [16]): 61%; growth at 0.5 µM (786-0): 92%
O=C(Nc1cccc(-n2cc(-c3ccncc3)c(-c3ccc(Cl)c(O)c3)n2)c1)c1ccc(N2CCOCC2)c(C(F)(F)F)c1	26	100	67	99	93	16	100	100	93	117	56	63	104	101	103	76	10	45	30	-37	growth at 0.005 µM (A549): 102%; growth at 0.05 µM (HOP-92): 78%; growth at 5 µM (SF-295 [11]): 13%; growth at 0.005 µM (HCT-15 [12]): 94%; growth at 0.5 µM (SF-295 [13]): 93%; growth at 5 µM (NCI-H460): 9%; growth at 0.05 µM (LOX IMVI): 96%; growth at 50 µM (SNB-75): 8%; growth at 0.005 µM (MOLT-4): 99%; growth at 0.5 µM (UACC-62 [14]): 97%; growth at 0.005 µM (COLO 205): 98%; growth at 0.05 µM (K562): 100%; growth at 5 µM (HCT-15 [15]): 18%; growth at 0.5 µM (OVCAR-5): 98%; growth at 0.5 µM (HCT-15 [16]): 91%; growth at 0.5 µM (786-0): 95%
COc1cc(-c2nn(-c3cccc(NC(=O)Nc4cccc(C(F)(F)F)c4)c3)cc2-c2ccncc2)ccc1Cl	-24	89	-9	66	97	-79	96	94	99	94	-14	-33	100	99	100	-2	-16	-8	-34	-53	growth at 0.005 µM (A549): 97%; growth at 0.05 µM (HOP-92): 90%; growth at 5 µM (SF-295 [11]): -71%; growth at 0.005 µM (HCT-15 [12]): 100%; growth at 0.5 µM (SF-295 [13]): 39%; growth at 5 µM (NCI-H460): -11%; growth at 0.05 µM (LOX IMVI): 95%; growth at 50 µM (SNB-75): -30%; growth at 0.005 µM (MOLT-4): 94%; growth at 0.5 µM (UACC-62 [14]): 74%; growth at 0.005 µM (COLO 205): 98%; growth at 0.05 µM (K562): 95%; growth at 5 µM (HCT-15 [15]): 1%; growth at 0.5 µM (OVCAR-5): 80%; growth at 0.5 µM (HCT-15 [16]): 66%; growth at 0.5 µM (786-0): 91%
